Inconclusive results and toxic doses are left out.

In this experiment the test system is L1210 leukemia ip in BDF1 mice, survival T/C. The experiment can be described thus: NCI In Vivo Anticancer Drug Screen. Data for tumor model L1210 Leukemia (intraperitoneal) in B6D2F1 (BDF1) mice. The settings on record: endpoint: mean survival time, higher = longer survival. The gist of the method: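 Tumor was transplanted into mice, which were then dosed with test compound or vehicle alone. Survival was recorded for each group, and the treated figure was expressed relative to the control figure.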

Setting [1] is: dose: 50.0 mg/kg/injection, schedule: Q01DX001 (ip), vehicle: saline.
Setting [2] is: dose: 100.0 mg/kg/injection, schedule: Q01DX001 (ip), vehicle: saline.
Where [3] appears, read: dose: 100.0 mg/kg/injection, schedule: Q04DX002 (ip), vehicle: Klucel (hydroxypropylcellulose) (HPC).
[4] abbreviates: dose: 200.0 mg/kg/injection, schedule: Q04DX002 (ip), vehicle: Klucel (hydroxypropylcellulose) (HPC).
Setting [5] is: dose: 400.0 mg/kg/injection, schedule: Q04DX002 (ip), vehicle: Klucel (hydroxypropylcellulose) (HPC).
[6] abbreviates: dose: 100.0 mg/kg/injection, schedule: Q01DX001 (ip), vehicle: Klucel (hydroxypropylcellulose) (HPC).
[7] abbreviates: dose: 200.0 mg/kg/injection, schedule: Q01DX001 (ip), vehicle: Klucel (hydroxypropylcellulose) (HPC).
Setting [8] is: dose: 400.0 mg/kg/injection, schedule: Q01DX001 (ip), vehicle: Klucel (hydroxypropylcellulose) (HPC).
[9] abbreviates: dose: 100.0 mg/kg/injection, schedule: Q04DX003 (ip), vehicle: saline.
[10] abbreviates: dose: 200.0 mg/kg/injection, schedule: Q04DX003 (ip), vehicle: saline.
Setting [11] is: dose: 400.0 mg/kg/injection, schedule: Q04DX003 (ip), vehicle: saline.

In the case of `COCn1cnc2c(F)ncnc21`, the T/C is, setting by setting: (dose: 6.25 mg/kg/injection, schedule: Q01DX009 (ip), vehicle: saline) 94 % of control; (dose: 6.25 mg/kg/injection, schedule: Q04DX003 (ip), vehicle: saline) 101 % of control; (dose: 12.5 mg/kg/injection, schedule: Q01DX009 (ip), vehicle: saline) 100 % of control; (dose: 12.5 mg/kg/injection, schedule: Q04DX003 (ip), vehicle: saline) 104 % of control; (dose: 25.0 mg/kg/injection, schedule: Q01DX009 (ip), vehicle: saline) 101 % of control; (dose: 25.0 mg/kg/injection, schedule: Q04DX003 (ip), vehicle: saline) 102 % of control.

Take `COc1ccc(CN2CCCN(Cc3ccc(OC)cc3OC)C2c2cc(Br)ccc2O)c(OC)c1`: the T/C runs as follows: under setting [1], 97 % of control; under setting [2], 90 % of control; (dose: 200.0 mg/kg/injection, schedule: Q01DX001 (ip), vehicle: saline) 92 % of control; (dose: 400.0 mg/kg/injection, schedule: Q01DX001 (ip), vehicle: saline) 92 % of control.

As to `O=C(c1ccccn1)C(O)c1ccccn1` (stereo not drawn), the T/C by setting is: (dose: 50.0 mg/kg/injection, schedule: Q04DX002 (ip), vehicle: Klucel (hydroxypropylcellulose) (HPC)) 96 % of control; under setting [3], 99 % of control; under setting [4], 96 % of control.

Consider `COC1OC(CBr)C(OS(C)(=O)=O)C(OC(=O)c2ccccc2)C1OC(=O)c1ccccc1` (stereo not drawn), for which the T/C under setting [3] was 103 % of control, the T/C under setting [4] was 91 % of control and the T/C under setting [5] is 94 % of control.

With `CN(C)c1ccc(C(=O)CCCN2CCC(O)(c3ccc(Cl)cc3)CC2)cc1`, the T/C runs as follows: under setting [6], 95 % of control; under setting [7], 94 % of control; under setting [8], 90 % of control.

In the case of `CN1CC(CO)=CC2c3cccc4[nH]cc(c34)CC21` (stereo not drawn), the T/C under setting [2] is 94 % of control.

Consider `CCN(CC)CCOC(=O)c1cc(=O)n(CCC(C)C)c2ccccc12`, for which the T/C by setting is: under setting [9], 113 % of control; under setting [10], 107 % of control; under setting [11], 101 % of control.

Take `O=[N+]([O-])c1ccc(C[n+]2ccccc2)cc1`: the T/C (dose: 50.0 mg/kg/injection, schedule: Q01DX009 (ip), vehicle: saline) was 89 % of control.

Consider `CCOC(=O)N[n+]1ccc(C)cc1`, for which the T/C (dose: 75.0 mg/kg/injection, schedule: Q01DX001 (ip), vehicle: other) was 101 % of control; the T/C (dose: 150.0 mg/kg/injection, schedule: Q01DX001 (ip), vehicle: other) is 101 % of control; the T/C (dose: 300.0 mg/kg/injection, schedule: Q01DX001 (ip), vehicle: other) was 105 % of control.

In the case of `CC(=O)Nc1cc(C(=O)Nc2ccc(C3=NCCN3)cc2)ccc1C(=O)Nc1ccc(C2=NCCN2)cc1`, the T/C was 103 % of control (dose: 7.5 mg/kg/injection, schedule: Q01DX Z (oral), vehicle: saline); 271 % of control (dose: 15.0 mg/kg/injection, schedule: Q01DX Z (ip), vehicle: saline); 105 % of control (dose: 15.0 mg/kg/injection, schedule: Q01DX Z (oral), vehicle: saline); 104 % of control (dose: 30.0 mg/kg/injection, schedule: Q01DX Z (oral), vehicle: saline); 105 % of control (dose: 60.0 mg/kg/injection, schedule: Q01DX Z (oral), vehicle: saline); 97 % of control (dose: 62.5 mg/kg/injection, schedule: Q## X009 (oral), vehicle: saline). The T/C is, setting by setting: (dose: 75.0 mg/kg/injection, schedule: Q01DX Z (oral), vehicle: saline) 90 % of control; (dose: 125.0 mg/kg/injection, schedule: Q## X009 (oral), vehicle: saline) 97 % of control; (dose: 150.0 mg/kg/injection, schedule: Q01DX Z (oral), vehicle: saline) 86 % of control; (dose: 500.0 mg/kg/injection, schedule: Q## X009 (oral), vehicle: saline) 101 % of control.

As to `CCOC(=O)CSC(=S)SCC(=O)OCC`, the T/C under setting [9] was 104 % of control, the T/C under setting [10] was 105 % of control and the T/C under setting [11] was 107 % of control.

Turning to `CCOP(=O)(Nc1c(Cl)cc2c(c1Cl)Cc1cc([N+](=O)[O-])ccc1-2)OCC`, the T/C was 103 % of control (dose: 50.0 mg/kg/injection, schedule: Q01DX001 (ip), vehicle: carboxymethylcellulose (CMC)); 100 % of control (dose: 100.0 mg/kg/injection, schedule: Q01DX001 (ip), vehicle: carboxymethylcellulose (CMC)); 100 % of control (dose: 200.0 mg/kg/injection, schedule: Q01DX001 (ip), vehicle: carboxymethylcellulose (CMC)); 103 % of control (dose: 400.0 mg/kg/injection, schedule: Q01DX001 (ip), vehicle: carboxymethylcellulose (CMC)).

Take `CC(C)(CO)N=Cc1ccccc1O.CC(C)(CO)N=Cc1ccccc1O.[Co]`: the T/C was 97 % of control (dose: 12.5 mg/kg/injection, schedule: Q01DX001 (ip), vehicle: saline); 97 % of control (dose: 25.0 mg/kg/injection, schedule: Q01DX001 (ip), vehicle: saline); 92 % of control under setting [1].

With `c1ccc(N2CN(c3ccccc3)CN(c3ccccc3)C2)cc1`, the T/C runs as follows: under setting [6], 97 % of control; under setting [3], 101 % of control; under setting [7], 92 % of control; under setting [4], 101 % of control; under setting [8], 92 % of control; under setting [5], 97 % of control.

On to `CCCCOP(=O)(Cc1ccc(Cl)cc1Cl)OCCCC`, for which the T/C by setting is: (dose: 100.0 mg/kg/injection, schedule: Q04DX002 (ip), vehicle: saline with Tween-80) 109 % of control; (dose: 200.0 mg/kg/injection, schedule: Q04DX002 (ip), vehicle: saline with Tween-80) 109 % of control; (dose: 400.0 mg/kg/injection, schedule: Q04DX002 (ip), vehicle: saline with Tween-80) 98 % of control.

`CC(N)(CO)CO`: the T/C is 114 % of control (dose: 100.0 mg/kg/injection, schedule: Q01DX009 (ip), vehicle: saline); 90 % of control (dose: 100.0 mg/kg/injection, schedule: Q04DX002 (ip), vehicle: saline); 122 % of control (dose: 200.0 mg/kg/injection, schedule: Q01DX009 (ip), vehicle: saline); 103 % of control (dose: 200.0 mg/kg/injection, schedule: Q04DX002 (ip), vehicle: saline); 100 % of control (dose: 400.0 mg/kg/injection, schedule: Q01DX009 (ip), vehicle: saline); 103 % of control (dose: 400.0 mg/kg/injection, schedule: Q04DX002 (ip), vehicle: saline).

`CC1(C)N=C(N)N=C(N)N1c1cccc(CCCCc2ccccc2)c1`: the T/C (dose: 5.0 mg/kg/injection, schedule: Q01DX001 (ip), vehicle: saline) was 86 % of control; the T/C (dose: 10.0 mg/kg/injection, schedule: Q01DX001 (ip), vehicle: saline) is 92 % of control; the T/C (dose: 20.0 mg/kg/injection, schedule: Q01DX001 (ip), vehicle: saline) was 103 % of control; the T/C (dose: 25.0 mg/kg/injection, schedule: Q01DX001 (ip), vehicle: saline with Tween-80) is 97 % of control; the T/C (dose: 40.0 mg/kg/injection, schedule: Q01DX001 (ip), vehicle: saline) is 92 % of control; the T/C (dose: 50.0 mg/kg/injection, schedule: Q01DX001 (ip), vehicle: saline with Tween-80) is 104 % of control. Also, the T/C is, setting by setting: under setting [1], 112 % of control; (dose: 100.0 mg/kg/injection, schedule: Q01DX001 (ip), vehicle: saline with Tween-80) 106 % of control.

For `O=C1CC(=P(c2ccccc2)(c2ccccc2)c2ccccc2)C(=O)N1c1cccc2ccc(O)cc12`, the T/C is, setting by setting: (dose: 75.0 mg/kg/injection, schedule: Q01DX001 (ip), vehicle: saline) 101 % of control; (dose: 150.0 mg/kg/injection, schedule: Q01DX001 (ip), vehicle: saline) 96 % of control; (dose: 300.0 mg/kg/injection, schedule: Q01DX001 (ip), vehicle: saline) 95 % of control.

The values are drawn from PubChem BioAssay AID248 (DTP/NCI, 2004).
